{"source": "patent US20250108070A1", "about": "“METHOD FOR REPROGRAMMING CD8+ T CELLS TO ENHANCE THEIR THERAPEUTIC POTENTIAL AND APPLICATIONS THEREOF” (INSTITUT PASTEUR, priority 2022, published 2025)", "key": {"[1]": {"tested_on": "human CD8+ T cells", "experiment": "Screening of GSK3 inhibitors: markers and memory phenotypes by flow cytometry", "format": "cell-based", "method": "(§1) FIG. 12. Screening molecules for reprogramming human CD8^+ T cells Total CD8^+ T cells were purified and treated for 12 hs with titrated doses of GSK3 inhibitors or DMSO vehicle control. After drug washout, cells were stimulated for 48 hs with plate-bound anti-CD3/anti-CD28 antibodies (at 1 mg/mL), followed by flow cytometry analyses. A. Upon stimulation, intracellular cytokine and phospho-protein staining was performed, the latter for the detection of phospho-S6 and phospho-AKT proteins (indicative of activation of mTORC1 and mTORC2 pathways, respectively). The fold change in the frequency of IFN-γ^+TNF-α^+ and pS6^+pAKT^+ cells induced by the treatment with each GSK3 inhibitor, relative to DMSO control, was analyzed. […] B. Fold change in the expression of the indicated markers and memory phenotypes induced by anti-CD3/anti-CD28 antibody stimulation relative to unstimulated cells (at least 3 donors per condition). TCM: T central memory; TEM: T effector memory; TTM: T transitional memory; TTE: T terminal effector; TSCM: T stem cell memory.\n(§2) For reprogramming of CD8^+ T cells followed by polyclonal stimulation, cells were isolated by negative magnetic bead sorting (Stemcell Technologies). For reprogramming of CD8^+ T cells followed by antigen-specific stimulation, PBMC and magnetically separated CD8^+ T cells and non-CD8^+ T cells were used (REAlease® CD8 MicroBead Kit; Miltenyi Biotech). Then, CD8^+ T cells were treated with a GSK3 inhibitor (6-Bromoindirubin-3′-oxime; BIO; Sigma-Aldrich), at 3 μM, or an equivalent concentration of dimethyl sulfoxide (DMSO) vehicle control, in complete medium, for 12 hs at 37° C., 5% CO2. Non-CD8 cells were left resting during this time in complete medium. CD8^+ T cells were washed with complete medium and stimulated with the peptide pool in presence of non-CD8 T cells.\n(§3) In some experiments, cells were culture in RPMI medium without glucose (MP Biomedicals). CD8^+ T cell proliferation was evaluated by CFSE dilution (at 1 μM, Thermo Fisher Scientific). In additional experiments, reprogrammed CD8^+ T cells were stimulated with IL-7 or IL-15 (both at 10 ng/mL; R&D) and cultured for 6 days. In all the cases, cells were cultured at a density of 2×10^6 cells/mL.\n(§4) After cultures, cells were stained with the LIVE/DEAD Fixable Aqua Dead Cell Stain kit (Thermo Fisher Scientific), with anti-CD3 Alexa Fluor 700 or APC efluor 780 and anti-CD8 PE Texas Red antibodies, accordingly. […] In some experiments, cells were stained with APC-conjugated dextramers (Immudex), incubated for 15 minutes at room temperature. Additional surface staining panels included anti-HLA-DR Superbright 780, anti-CD38 Superbright 600, anti-PD-1 BV421, anti-LAG-3 APC efluor 780, anti-TIM3 PE Cy7, and anti-TIGIT BV786 antibodies, or anti-CD122 PE and anti-CD215 FITC antibodies. The BD Transcription Factor Buffer Set kit (BD Biosciences) was used for cell fixation and permeabilization. […] Cell acquisition was performed using LSR II or ARIA III flow cytometers (both from BD Biosciences), and data were analyzed with FlowJo v.10 software (BD Biosciences)."}, "[2]": {"tested_on": "mTORC1 and mTORC2 pathways", "experiment": "Screening of GSK3 inhibitors: phospho-S6 / phospho-AKT staining (activation of mTORC1 and mTORC2 pathways)", "format": "cell-based, human", "details": "for Fold change in pS6+pAKT+cells (relative to DMSO): 12 hs at optimal dose, washout, 48 hs anti-CD3/anti-CD28, symbols not defined; for frequency of pS6+pAKT+ cells / activation of mTORC pathway: FIG. 12A, in words", "method": "as §1, §2, §3, §4\n(§5) The inventors explored GSK3 inhibitors to expand the array of molecules that could be used for CD8^+ T cell reprogramming. They implemented a screening approach that combined the evaluation of cytokine polyfunctionality of CD8^+ T cells (IFN-γ+TNFα+) vs the activation of mTORC1 and mTORC2 pathways (pS6+pAKT+) upon treatment with the GSK3 inhibitors and subsequent polyclonal stimulation."}, "[3]": {"tested_on": "human CD8+ T cells", "experiment": "Screening of GSK3 inhibitors: cytokine polyfunctionality (IFN-γ+TNF-α+) of CD8+ T cells after anti-CD3/anti-CD28 stimulation", "format": "cell-based", "details": "for Fold change in IFN-γ+ TNF-a+cells (relative to DMSO): 12 hs at optimal dose, washout, 48 hs anti-CD3/anti-CD28, symbols not defined; for IFN-γ+TNF-α+ cells (polyfunctionality) relative to vehicle control: FIG. 12A, in words", "method": "as §1, §2, §3, §4, §5"}, "[4]": {"tested_on": "GSK3", "details": "GSK3 inhibitor, review Front. Mol. Neurosci. 2011; cited from earlier work"}, "[5]": {"details": "12 hs at optimal dose, anti-CD3/anti-CD28 stimulation relative to unstimulated cells, symbols not defined"}}, "note": "Where two headings read alike, the source gives them in different places."}
{"smiles": "O=C1Cc2c([nH]c3ccc([N+](=O)[O-])cc23)-c2ccccc2N1", "note": "[Alsterpaullone]", "values": [{"measurement": "Fold change in % HLA+ CD38+", "setting": "[1]; [5]", "value": "− −"}, {"measurement": "Fold change in pS6+pAKT+cells (relative to DMSO)", "setting": "[2]", "value": "+ +"}, {"measurement": "frequency of pS6+pAKT+ cells / activation of mTORC pathway", "setting": "[2]", "value": "activation of mTORC pathway"}, {"measurement": "Fold change in IFN-γ+ TNF-a+cells (relative to DMSO)", "setting": "[3]", "value": "+ +"}, {"measurement": "IFN-γ+TNF-α+ cells (polyfunctionality) relative to vehicle control", "setting": "[3]", "value": "increased"}]}
{"smiles": "O=C([O-])[O-].[Li+].[Li+]", "note": "[Lithium carbonate]", "values": [{"measurement": "Fold change in % HLA+ CD38+", "setting": "[1]; [5]", "value": "+ +"}]}
{"smiles": "CN(C)CCCn1cc(C2=C(c3c[nH]c4ccccc34)C(=O)NC2=O)c2ccccc21", "note": "[GF 109203X]", "values": [{"measurement": "Fold change in % HLA+ CD38+", "setting": "[1]; [5]", "value": "− −"}]}
{"smiles": "[Zn+2]", "note": "[Zinc]", "values": [{"measurement": "IC50", "setting": "[4]", "value": 15, "unit": "µM"}]}
{"smiles": "COc1ccc(-c2ocnc2C(=O)NCCCn2cncn2)cc1Cl", "note": "[PF-04802367]", "values": [{"measurement": "Fold change in pS6+pAKT+cells (relative to DMSO)", "setting": "[2]", "value": "+ +"}, {"measurement": "frequency of pS6+pAKT+ cells / activation of mTORC pathway", "setting": "[2]", "value": "activation of mTORC pathway"}, {"measurement": "Fold change in IFN-γ+ TNF-a+cells (relative to DMSO)", "setting": "[3]", "value": "+ +"}, {"measurement": "IFN-γ+TNF-α+ cells (polyfunctionality) relative to vehicle control", "setting": "[3]", "value": "increased"}]}
{"smiles": "NC1=N[C@H]2c3c([nH]c(Br)c3Br)C(=O)N3CCC[C@]23N1", "note": "[Dibromocantharelline]", "values": [{"measurement": "IC50", "setting": "[4]", "value": 3, "unit": "µM"}]}
{"smiles": "CN[C@@H]1C[C@H]2O[C@@](C)([C@@H]1OC)n1c3ccccc3c3c4c(c5c6ccccc6n2c5c31)C(=O)NC4", "note": "[Staurosporine]", "values": [{"measurement": "Fold change in % CD127+ T-bet−", "setting": "[1]", "value": "+"}, {"measurement": "Fold change in % HLA+ CD38+", "setting": "[1]", "value": "−"}, {"measurement": "Fold change in % LAG3+ PD1+", "setting": "[1]", "value": "−"}, {"measurement": "Fold change in % TTM", "setting": "[1]", "value": "+"}]}
